Target: ADAMTS4 (Homo sapiens (Human), UniProt O75173)
Test: Selectivity assay for ADAMTS-7 modulators: ADAMTS4 (FRET substrate)
Format: biochemical
Settings: ADAMTS4 (R&D 4307-AD) 50 nM, substrate Dabcyl-EEVKAKVQPY-Glu(Edans)-NH2 1 μM, 120 min, 32° C.
Protocol: 1 μl test compound solution (dissolved in DMSO, at the corresponding concentration) or pure DMSO as a control was added per well. The enzymatic reaction was initiated by addition of 25 μl of the respective concentration of the respective FRET substrate (see table 2 below) in reaction buffer.
The increase of fluorescence intensity was measured in appropriate fluorescence plate reader (e.g. TECAN Ultra) using the respective wavelengths for excitation and emission. IC50 values were calculated from percentage of inhibition of enzyme activity as a function of test compound concentration.

ADAMTS4, sequence (O75173 213-685): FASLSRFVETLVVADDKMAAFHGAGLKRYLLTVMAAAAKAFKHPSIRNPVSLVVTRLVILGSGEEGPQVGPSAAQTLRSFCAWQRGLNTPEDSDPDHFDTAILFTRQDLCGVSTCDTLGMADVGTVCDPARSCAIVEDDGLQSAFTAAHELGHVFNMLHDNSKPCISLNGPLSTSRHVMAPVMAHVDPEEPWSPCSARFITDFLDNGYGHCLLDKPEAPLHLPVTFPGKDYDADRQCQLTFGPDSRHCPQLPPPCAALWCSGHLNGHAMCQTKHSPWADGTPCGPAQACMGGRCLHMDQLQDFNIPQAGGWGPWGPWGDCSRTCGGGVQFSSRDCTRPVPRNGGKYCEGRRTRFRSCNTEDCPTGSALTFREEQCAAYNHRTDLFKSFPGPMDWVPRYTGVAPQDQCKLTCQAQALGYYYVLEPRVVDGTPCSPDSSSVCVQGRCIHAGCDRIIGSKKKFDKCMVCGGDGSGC

Row | Structure (SMILES) | IC50
1 | O=C1NC(=O)C(CNC(=O)c2ccccc2-c2ccc(C(F)(F)F)cc2)(c2ncccc2C(F)(F)F)N1 (racemic) [Example 243, Rac-N-({2,5-Dioxo-4-[3-(Trifluoromethyl)Pyridin-2-Yl]Imidazolidin-4-Yl}Methyl)-4′-(Trifluoromethyl)[Biphenyl]-2-Carboxamide] | 45 µM
2 | O=C1NC(=O)C(CNC(=O)c2ccc(F)cc2-c2ccc(Cl)cc2)(C2CC(F)(F)C2)N1 (racemic) [Example 245, Rac-4′-Chloro-N-{[4-(3,3-Difluorocyclobutyl)-2,5-Dioxoimidazoidin-4-Yl]Methyl}-5-Fluoro[Biphenyl]-2-Carboxamide] | > 50 µM
3 | O=C1NC(=O)C(CNC(=O)c2ccccc2-c2ccc(Cl)cc2)(C2CC(F)(F)C2)N1 (racemic) [Example 246, Rac-4′-Chloro-N-{[4-(3,3-Difluorocyclobutyl)-2,5-Dioxoimidazolidin-4-Yl]Methyl}[Biphenyl]-2-Carboxamide] | > 50 µM
4 | O=C1NC(=O)C(CNC(=O)c2ccc(F)cc2-c2ccc(Cl)cc2)(C2(F)CC2)N1 (racemic) [Example 249, Rac-4′-Chloro-5-Fluoro-N-{[4-(1-Fluorocyclopropyl)-2,5-Dioxoimidazolidin-4-Yl]Methyl}[Biphenyl]-2-Carboxamide] | 35 µM
5 | O=C1NC(=O)C(CNC(=O)c2ccccc2-c2ccc(Cl)cc2)(C2(F)CC2)N1 (racemic) [Example 250, Rac-4′-Chloro-N-{[4-(1-Fluorocyclopropyl)-2,5-Dioxoimidazolidin-4-Yl]Methyl}[Biphenyl]-2-Carboxamide] | 31 µM
6 | O=C1NC(=O)C(CNC(=O)c2ccc(F)cc2-c2ccc(C(F)(F)F)cc2)(C2(F)CC2)N1 (racemic) [Example 252, Rac-5-Fluoro-N-{[4-(1-Fluorocyclopropyl)-2,5-Dioxoimidazolidin-4-Yl]Methyl}-4′-(Trifluoromethyl)[Biphenyl]-2-Carboxamide] | 41 µM
7 | O=C1NC(=O)C(CNC(=O)c2ccccc2-c2ccc(C(F)(F)F)cc2)(C2(F)CC2)N1 (racemic) [Example 254, Rac-N-{[4-(1-Fluorocyclopropyl)-2,5-Dioxoimidazolidin-4-Yl]Methyl}-4′-(Trifluoromethyl)[Biphenyl]-2-Carboxamide] | 26 µM

Further lines, results first:

Row | IC50 | Structure (SMILES)
8 | 28 µM | O=C1NC(=O)C(CNC(=O)c2ccc(F)c(F)c2-c2ccc(C(F)(F)F)cc2)(C2(F)CC2)N1 (racemic) [Example 256, Rac-5,6-Difluoro-N-{[4-(1-Fluorocyclopropyl)-2,5-Dioxoimidazolidin-4-Yl]Methyl}-4′-(Trifluoromethyl)[Biphenyl]-2-Carboxamide]
9 | 11 µM | O=C1NC(=O)C(CNC(=O)c2ccc(F)cc2-c2ccc(Cl)cc2)(c2ccnn2C(F)F)N1 (racemic) [Example 257, Rac-4′-Chloro-N-({4-[1-(Difluoromethyl)-1H-Pyrazol-5-Yl]-2,5-Dioxoimidazolidin-4-Yl}Methyl)-5-Fluoro[Biphenyl]-2-Carboxamide]
10 | 12 µM | O=C1NC(=O)C(CNC(=O)c2ccccc2-c2ccc(Cl)cc2)(c2ccnn2C(F)F)N1 (racemic) [Example 258, Rac-4′-Chloro-N-({4-[1-(Difluoromethyl)-1H-Pyrazol-5-Yl]-2,5-Dioxoimidazolidin-4-Yl}Methyl)[Biphenyl]-2-Carboxamide]
11 | 17 µM | O=C1NC(=O)C(CNC(=O)c2ccccc2-c2ccc(C(F)(F)F)cc2)(c2ccnn2C(F)F)N1 (racemic) [Example 260, Rac-N-({4-[1-(Difluoromethyl)-1H-Pyrazol-5-Yl]-2,5-Dioxoimidazolidin-4-Yl}Methyl)-4′-(Trifluoromethyl)[Biphenyl]-2-Carboxamide]
12 | 19 µM | O=C1NC(=O)C(CNC(=O)c2ccc(F)cc2-c2ccc(C(F)(F)F)cc2)(c2ccnn2C(F)F)N1 (racemic) [Example 262, Rac-N-({4-[1-(Difluoromethyl)-1H-Pyrazol-5-Yl]-2,5-Dioxoimidazolidin-4-Yl}Methyl)-5-Fluoro-4′-(Trifluoromethyl)[Biphenyl]-2-Carboxamide]

From patent publication US12398120B2, “Substituted hydantoinamides as ADAMTS7 antagonists” (BAYER AKTIENGESELLSCHAFT, priority 2019, dated 2025)
